Results as given in patent US7012128B2, “Interaction between cyclin D1 and steroid receptor co-activators and uses thereof in assays” (TopoTarget UK Limited, priority 1998, dated 2006).

Columns and labels:
pRb = assay: Phosphorylation of pRb in Rb-/- 3T3 cells; format: cell-based; settings: cells that lack cyclin D1-associated kinase activity, low serum
Excerpt: COS-7 cells were cotransfected with HA-tagged constructs encoding the nuclear receptor coactivators SRC-1, AIB-1 or p300 (Anzick et al., 1997; Chakravarti et al., 1996; Hanstein et al., 1996; Kamei et al., 1996; Onate et al., 1995) together with control plasmid, plasmids directing the synthesis of wild type cyclin D1 or D1 L254/255A mutant (D1-LALA). 12CA5 HA antibodies were used for immunoprecipitation of whole cell extracts prepared from these cells and co-immunoprecipitation of cyclin D1 (mutants) was examined by Western blot analysis using anti-cyclin D1 antibody. […] Precipitation with the anti-cyclin D1 antibody from the total lysate of the cells transfected with cyclin D1 and cyclin D1-LALA was similar. Binding of cyclin D1 and cyclin D1 L254/255A mutant to ER was then investigated. COS-7 cells were transfected with ER expression vector, cyclin D1 (mutant) and/or control plasmids. Monoclonal ER antibodies were used for immunoprecipitation of ER of whole cell extracts prepared from these cells and co-immunoprecipitation of cyclin D1 (mutant) was examined by Western blot analysis using monoclonal cyclin D1 antibodies. […] The activity of cyclin D1 and D1 L254/255A mutant in phosphorylation of pRb in Rb^−/− 3T3 cells was also investigated. […] Differentially phosphorylated species of pRb were detected by Western blotting using the polyclonal pRb antibody (C15, Santa Cruz).

[1] = test system: MCF-7 breast cancer cells; assay: Cell cycle profiles by FACS after transient transfection; format: cell-based; settings: transient transfection of MCF-7
Method: Cell cycle profiles were analysed using fluuorescence activated cell sorting (FACS)(Allen, 1990; Baldetorp et al, 1998).

ER [2] = biological target: T1, ER (Homo sapiens, UniProt P03372); assay: Co-immunoprecipitation with ER from COS-7 cells; format: binding; parameters: expressed in transfected cells; host or cells: COS-7
T1 sequence (P03372 1-595): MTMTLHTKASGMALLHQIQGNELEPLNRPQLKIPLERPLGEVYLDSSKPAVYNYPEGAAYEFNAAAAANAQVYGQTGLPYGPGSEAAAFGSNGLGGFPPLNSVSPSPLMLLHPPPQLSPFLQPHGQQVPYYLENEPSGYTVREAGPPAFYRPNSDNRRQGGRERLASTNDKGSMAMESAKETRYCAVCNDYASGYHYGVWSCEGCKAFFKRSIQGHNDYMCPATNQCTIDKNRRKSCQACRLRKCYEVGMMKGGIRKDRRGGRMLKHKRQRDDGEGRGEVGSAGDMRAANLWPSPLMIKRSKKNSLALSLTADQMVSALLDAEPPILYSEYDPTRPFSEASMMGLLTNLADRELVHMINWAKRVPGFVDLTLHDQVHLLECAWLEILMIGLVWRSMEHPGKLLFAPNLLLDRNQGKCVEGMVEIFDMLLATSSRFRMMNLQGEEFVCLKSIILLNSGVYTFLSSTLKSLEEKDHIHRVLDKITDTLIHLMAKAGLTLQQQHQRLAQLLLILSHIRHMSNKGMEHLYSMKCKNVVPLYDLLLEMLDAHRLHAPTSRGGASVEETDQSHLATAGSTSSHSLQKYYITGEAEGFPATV
Excerpt: (§1) COS-7 cells were cotransfected with HA-tagged constructs encoding the nuclear receptor coactivators SRC-1, AIB-1 or p300 (Anzick et al., 1997; Chakravarti et al., 1996; Hanstein et al., 1996; Kamei et al., 1996; Onate et al., 1995) together with control plasmid, plasmids directing the synthesis of wild type cyclin D1 or D1 L254/255A mutant (D1-LALA). 12CA5 HA antibodies were used for immunoprecipitation of whole cell extracts prepared from these cells and co-immunoprecipitation of cyclin D1 (mutants) was examined by Western blot analysis using anti-cyclin D1 antibody. […] Precipitation with the anti-cyclin D1 antibody from the total lysate of the cells transfected with cyclin D1 and cyclin D1-LALA was similar. Binding of cyclin D1 and cyclin D1 L254/255A mutant to ER was then investigated. COS-7 cells were transfected with ER expression vector, cyclin D1 (mutant) and/or control plasmids. […] Differentially phosphorylated species of pRb were detected by Western blotting using the polyclonal pRb antibody (C15, Santa Cruz).
(§2) Cells were lysed in ELB containing 250 mM NaCl, 0.1% NP-40, 50 mM HEPES pH 7.0, 5 mM EDTA and protease inhibitors. […] After blocking with PBS containing 5% milk and 0.1% Tween-20, proteins were detected with monoclonal antibodies directed against cyclin D1 (DCS-6, Neomarkers) and peroxidase-conjugated goat anti-mouse IgG. […]

[3] = test system: SRC family proteins (SRC-1, AIB-1); assay: Co-immunoprecipitation with HA-tagged coactivators from COS-7 cells; format: binding; settings: absence of 17β-estradiol
Excerpt: as §1, §2

ER [4] = biological target: T1, ER; assay: ER activation, ERE-reporter gene, in T47D cells; format: cell-based; parameters: T47D and MCF-7, which contain endogenous wild type ER; endogenous in cells; host or cells: MCF-7; T47D; settings: relative low levels of cyclin D1, 17β-estradiol enriched medium
Excerpt: The ER-containing T47D and MCF-7 breast cancer cells were maintained in 17β-estradiol enriched medium with 10%fetal calf serum after cotransfection with a cyclin D1 L254/255A mutant expression vector and an ERE-reporter gene for testing its effect on ER activation (left panel). ER transactivation in the absence of co-expression of the cyclin D1 mutant was set at 100%.
To get more insight in the role of cyclin D1 in ER transactivation in breast cancers with elevated levels of cyclin D1, we have tested the effect of the mutant cyclin D1 L254/255A on ER activation in two different breast cancer cell lines. This cyclin D1 mutant does bind to ER, but fails both to interact with SRC-1 as shown above and consequently fails to activate ER (FIG. 1B). Therefore, this mutant can act as a dominant negative in cyclin D1-mediated ER transactivation as it binds to ER and fails to recruit coactivators. We tested the effect of this cyclin D1 mutant on ER activation in two breast cancer cell lines, T47D and MCF-7, which contain endogenous wild type ER, but differ in their cyclin D1 protein levels (FIG. 6). […] In contrast, in MCF-7, which contain relative high levels of cyclin D1 (FIG. 6), the cyclin D1 mutant inhibited up to 50% of ER activity. Thus, this dominant negative cyclin D1 mutant preferentially interferes with ER activation in breast cancer cells that have high levels of cyclin D1 protein.

ability to bind ER (ER [2]): unaffected
inhibition of ER activity (ER [4]): slight inhibition
Substance: Cyclin D1-LALA: cyclin D1 mutant in which leucines 254 and 255 were mutated to alanines; dominant negative
ability to phosphorylate pRb (pRb): unaffected
effect on cell cycle [1]: arrest in the cell cycle at the G1/S checkpoint
Phase of cell cycle G0/G1 ([1]; FACS): 81.9%
Phase of cell cycle G2/M ([1]; FACS): 7.9%
Phase of cell cycle S ([1]; FACS): 10.2%
interaction with SRC family proteins [3]: did not interact
